Data reported in patent US20170333591A9, “ABSORBENT ARTICLE COMPRISING MALODOR REDUCTION COMPOSITIONS” (The Procter & Gamble Company, priority 2014, published 2017).

Assay: Log of liquid dish neat product liquid-air partition coefficient
Assay type: physicochemical
Details: not given

Structure (SMILES)	Comment Code: Log of liquid dish neat product liquid-air partition coefficient
CC1C(C)(C)C2=C(C3OC(C)(C)OC3CC2)C1(C)C (stereo not shown) [Material 23]	K (Log of liquid dish neat product liquid-air partition coefficient greater than or equal to 7)
C=CC(C)(CCC=C(C)C)OC(C)=O (stereo not shown) [Material 154]	K (Log of liquid dish neat product liquid-air partition coefficient greater than or equal to 7)
CC(C)=CCC/C(C)=C/COC=O [Material 306]	K (Log of liquid dish neat product liquid-air partition coefficient greater than or equal to 7)
CC1=CCCC2(C)CCC(C(C)(C)O)CC12 (stereo not shown) [Material 712]	K (Log of liquid dish neat product liquid-air partition coefficient greater than or equal to 7)
CC(=O)C(C)=CC1C(C)=CCCC1(C)C (stereo not shown) [Material 703]	K (Log of liquid dish neat product liquid-air partition coefficient greater than or equal to 7)
c1ccc(COCc2ccccc2)cc1 [Material 454]	K (Log of liquid dish neat product liquid-air partition coefficient greater than or equal to 7)
CCc1ccc(OC)c(O)c1 [Material 797]	K (Log of liquid dish neat product liquid-air partition coefficient greater than or equal to 7)
CCC(=O)N(CC)c1cccc(C)c1 [Material 755]	K (Log of liquid dish neat product liquid-air partition coefficient greater than or equal to 7)
C=CC(C)(O)CCC=C(C)C (stereo not shown) [Material 157]	K (Log of liquid dish neat product liquid-air partition coefficient greater than or equal to 7)
C=CC(C)CCCC(C)(C)O (stereo not shown) [Material 437]	K (Log of liquid dish neat product liquid-air partition coefficient greater than or equal to 7)
COC(Cc1ccccc1)OC [Material 627]	K (Log of liquid dish neat product liquid-air partition coefficient greater than or equal to 7)

Same assay, conditions: code letter within the Comment Code cell

Structure (SMILES)	Log of liquid dish neat product liquid-air partition coefficient (Comment Code K/L)
CC(C)=CCC/C(C)=C\CO [Material 64]	K (Log of liquid dish neat product liquid-air partition coefficient greater than or equal to 7)
CC(=CC#N)CCc1ccccc1 [Material 505]	K (Log of liquid dish neat product liquid-air partition coefficient greater than or equal to 7)
C=CC(C)=CCCC(C)(C)O [Material 42]	K (Log of liquid dish neat product liquid-air partition coefficient greater than or equal to 7)
CC(C)=CCCC(C)=CC1OCC(C)O1 (stereo not shown) [Material 519]	K (Log of liquid dish neat product liquid-air partition coefficient greater than or equal to 7)
CC1C(C)(C)C2=C(C3OC(C)(C)OC3CC2)C1(C)C (stereo not shown) [Material 23]	K (Log of liquid dish neat product liquid-air partition coefficient greater than or equal to 7)
CCc1ccc(CC(C)(C)C#N)cc1 [Material 361]	K (Log of liquid dish neat product liquid-air partition coefficient greater than or equal to 7)
CC(C=O)Cc1ccc(C(C)(C)C)cc1 (stereo not shown) [Material 162]	K (Log of liquid dish neat product liquid-air partition coefficient greater than or equal to 7)
C=CCCCCCCCCC#N [Material 352]	K (Log of liquid dish neat product liquid-air partition coefficient greater than or equal to 7)
CC1=CCC(C(C)CC2CCCC2=O)CC1 (stereo not shown) [Material 69]	K (Log of liquid dish neat product liquid-air partition coefficient greater than or equal to 7)
CCCCCCCC(=O)OCc1ccco1 [Material 336]	K (Log of liquid dish neat product liquid-air partition coefficient greater than or equal to 7)
O=C1CCC=CCCCCCCCCCC1 [Material 372]	K (Log of liquid dish neat product liquid-air partition coefficient greater than or equal to 7)

Same assay, conditions: code letters K/L of the Comment Code

Structure (SMILES)	Log of liquid dish neat product liquid-air partition coefficient (Comment Code)
CC1=C2CCC(C)C2CC(C(C)(C)O)CC1 (stereo not shown) [Material 920]	K (Log of liquid dish neat product liquid-air partition coefficient greater than or equal to 7)
C=C1C=CC(C(C)CCC=C(C)C)CC1 (stereo not shown) [Material 614]	K (Log of liquid dish neat product liquid-air partition coefficient greater than or equal to 7)
CC(=O)CCCC(C)CCCC(C)CCCC(C)C (stereo not shown) [Material 782]	K (Log of liquid dish neat product liquid-air partition coefficient greater than or equal to 7)
C=CCCCCCCCCCO [Material 870]	K (Log of liquid dish neat product liquid-air partition coefficient greater than or equal to 7)
CC(C)c1ccc2ncccc2c1 [Material 778]	K (Log of liquid dish neat product liquid-air partition coefficient greater than or equal to 7)
N#CC(=C1CCCCC1)c1ccccc1 [Material 945]	K (Log of liquid dish neat product liquid-air partition coefficient greater than or equal to 7)
CCOCOC1CCCCCCCCCCC1 [Material 607]	K (Log of liquid dish neat product liquid-air partition coefficient greater than or equal to 7)
CCCCCC(=O)Oc1ccc(C)cc1 [Material 939]	K (Log of liquid dish neat product liquid-air partition coefficient greater than or equal to 7)
CC1=CCCC2(C)CCC(C(C)(C)O)CC12 (stereo not shown) [Material 712]	K (Log of liquid dish neat product liquid-air partition coefficient greater than or equal to 7)
c1ccc(CCOC2CCCCC2)cc1 [Material 953]	K (Log of liquid dish neat product liquid-air partition coefficient greater than or equal to 7)
CC1=CC2CC(C3OCCO3)C1CC2C(C)C (stereo not shown) [Material 912]	K (Log of liquid dish neat product liquid-air partition coefficient greater than or equal to 7)
COc1ccc(CCC(C)=O)cc1 [Material 803]	K (Log of liquid dish neat product liquid-air partition coefficient greater than or equal to 7)
CC1CCC2C(C2(C)C)C12COC(C)(C)OC2 (stereo not shown) [Material 1036]	K (Log of liquid dish neat product liquid-air partition coefficient greater than or equal to 7)
COC(Cc1ccccc1)OC [Material 627]	K (Log of liquid dish neat product liquid-air partition coefficient greater than or equal to 7)
CC1CC(C)(C)OC(Cc2ccccc2)O1 (stereo not shown) [Material 1003]	K (Log of liquid dish neat product liquid-air partition coefficient greater than or equal to 7)
